According to patent EP4692114A1, “CALCITONIN ANALOGUE, AND DERIVATIVE THEREOF AND USE THEREOF” (Hangzhou Sciwind Biosciences Co., Ltd., priority 2023, dated 2024):
*1 amine or outer side, *2 acyl side, *3 side chain or, on linkers, in order; H or OH if unused. Where a SMILES comes first, the peptide text is derived from it. The star is where a group is joined. C22 diacid = O=C(O)CCCCCCCCCCCCCCCCCCCCC(=O)*; C20 diacid = O=C(O)CCCCCCCCCCCCCCCCCCC(=O)*; γGlu = O=C(O)[C@H](CCC(=O)[*:2])N[*:1]; βAsp = O=C(O)[C@H](CC(=O)[*:2])N[*:1]; AEEA = NCCOCCOCC(=O)O; Inp = O=C(O)C1CCNCC1

These compounds were tested against T1, human amylin receptors (Homo sapiens, UniProt O60896+P30988) (assay: Luciferase assay of amylin (amylin receptor/CRE-luc cell line)). Settings: stably transfected amylin receptor/CRE-luc CHO cells (CHO-K1/Gal5/AMY3), 24 hours incubation, luciferase readout.
T1 sequence (P30988 25-474): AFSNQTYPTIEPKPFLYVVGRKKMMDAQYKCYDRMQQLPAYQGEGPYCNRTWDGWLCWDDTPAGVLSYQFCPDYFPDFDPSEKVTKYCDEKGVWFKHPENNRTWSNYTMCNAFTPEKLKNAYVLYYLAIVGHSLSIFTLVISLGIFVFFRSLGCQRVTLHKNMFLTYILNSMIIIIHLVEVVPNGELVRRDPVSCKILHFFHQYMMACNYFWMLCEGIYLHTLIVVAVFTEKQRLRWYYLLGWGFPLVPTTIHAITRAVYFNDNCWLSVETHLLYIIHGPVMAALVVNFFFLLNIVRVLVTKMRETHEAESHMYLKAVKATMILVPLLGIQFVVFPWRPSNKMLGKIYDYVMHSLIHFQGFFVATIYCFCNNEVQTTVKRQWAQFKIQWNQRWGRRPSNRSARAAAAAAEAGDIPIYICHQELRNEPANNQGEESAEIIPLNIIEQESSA
T1 sequence (O60896 24-148 partner): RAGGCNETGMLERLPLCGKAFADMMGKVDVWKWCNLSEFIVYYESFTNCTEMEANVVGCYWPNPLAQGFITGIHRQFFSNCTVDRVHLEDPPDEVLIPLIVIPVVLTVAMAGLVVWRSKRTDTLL
Type: cell-based
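Further: agonist potency from luminescence of cAMP response element-driven luciferase, EC50 derived from a standard curve of signal versus compound concentration.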
Source text: The objective of this assay is to test the activity or potency of calcitonin analogues or derivatives on human amylin receptors in vitro using a luciferase assay.
Using the standard protocol, CHO-K1/Gal5/AMY3 cells (purchased from GenScript, with the calcitonin receptor and the receptor activity modifying peptide (RAMP) constructed already) were transfected with a plasmid containing a luciferase expression cassette driven by multiple copies of cAMP response elements (CREs). The cells were cultured in an F12 medium containing 200 ug/mL Zeocin, 2 ug/mL puromycin, 100 ug/mL hygromycin, and 400 ug/mL G418 to afford a stably transfected amylin receptor/CRE-luc cell line.
To each well of a white 96-well plate was added 50 µL of the tested sample solution at a respective concentration.
The stably transfected amylin receptor/CRE-luc CHO cells were resuspended in the growth medium at a certain density, and 50 µL of the cell suspension was added at a density of about 20000 cells per well to the white 96-well plate containing the tested sample solution. After incubation of 24 hours at 37°C and 5% CO2, 100 µL of a Luciferase substrate was added to each well, incubated for 3 minutes, and finally was tested for luminescence on SpectraMax L (Molecular Devices) with the software SoftMax Pro 7.0.3 GxP. A standard curve was plotted using the fluorescent intensities for calculation of EC50.

| EC50 | Compound |
| --- | --- |
| 0.016 nM | CC(C)C[C@H](NC(=O)[C@H](CCCNC(=N)N)NC(=O)CNC(=O)[C@H](CC(C)C)NC(=O)[C@@H](NC(=O)[C@H](C)NC(=O)[C@@H](NC(=O)[C@H](CO)NC(=O)[C@H](CC(C)C)NC(=O)[C@H](CCC(N)=O)NC(=O)[C@H](CO)NC(=O)[C@H](C)NC(=O)COCCOCCNC(=O)COCCOCCNC(=O)C1CCN(C(=O)CCCCCCCCCCCCCCCCCCC(=O)O)CC1)[C@@H](C)O)C(C)C)C(=O)N[C@@H](CO)C(=O)N[C@@H](CCC(=O)O)C(=O)N[C@@H](CCC(=O)O)C(=O)N[C@@H](CC(C)C)C(=O)N[C@@H](Cc1c[nH]cn1)C(=O)N[C@@H](CCCNC(=N)N)C(=O)N[C@@H](CC(C)C)C(=O)N[C@@H](CCC(N)=O)C(=O)N[C@@H](CC(=O)O)C(=O)N[C@@H](Cc1ccc(O)cc1)C(=O)N1CCC[C@H]1C(=O)N[C@@H](CCCNC(=N)N)C(=O)N[C@H](C(=O)N[C@@H](CC(=O)O)C(=O)N[C@H](C(=O)NCC(=O)N[C@@H](CO)C(=O)NCC(=O)N[C@@H](CO)C(=O)N1CCC[C@H]1C(N)=O)C(C)C)[C@@H](C)O [M62] ({C20 diacid-Inp-AEEA-AEEA}-ASQLSTAVLGRLSEELHRLQDYPRTDVGSGSP-NH2) |
| 0.017 nM | CC(C)C[C@H](NC(=O)[C@H](CCCNC(=N)N)NC(=O)CNC(=O)[C@H](CC(C)C)NC(=O)[C@@H](NC(=O)[C@H](C)NC(=O)[C@@H](NC(=O)[C@H](CO)NC(=O)[C@H](CC(C)C)NC(=O)[C@H](CCC(N)=O)NC(=O)[C@H](CO)NC(=O)[C@H](C)NC(=O)[C@H](CCC(=O)O)NC(=O)CCCCCCCCCCCCCCCCCCC(=O)O)[C@@H](C)O)C(C)C)C(=O)N[C@@H](CO)C(=O)N[C@@H](CCC(=O)O)C(=O)N[C@@H](CCC(=O)O)C(=O)N[C@@H](CC(C)C)C(=O)N[C@@H](Cc1c[nH]cn1)C(=O)N[C@@H](CCCNC(=N)N)C(=O)N[C@@H](CC(C)C)C(=O)N[C@@H](CCC(N)=O)C(=O)N[C@@H](CC(=O)O)C(=O)N[C@@H](Cc1ccc(O)cc1)C(=O)N1CCC[C@H]1C(=O)N[C@@H](CCCNC(=N)N)C(=O)N[C@H](C(=O)N[C@@H](CC(=O)O)C(=O)N[C@H](C(=O)NCC(=O)N[C@@H](CO)C(=O)NCC(=O)N[C@@H](CO)C(=O)N1CCC[C@H]1C(N)=O)C(C)C)[C@@H](C)O [M52] ({C20 diacid}-EASQLSTAVLGRLSEELHRLQDYPRTDVGSGSP-NH2) |
| 0.017 nM | CC(C)C[C@H](NC(=O)[C@H](CCCNC(=N)N)NC(=O)CNC(=O)[C@H](CC(C)C)NC(=O)[C@@H](NC(=O)[C@H](C)NC(=O)[C@@H](NC(=O)[C@H](CO)NC(=O)[C@H](CC(C)C)NC(=O)[C@H](CCC(N)=O)NC(=O)[C@H](CO)NC(=O)[C@H](C)NC(=O)COCCOCCNC(=O)COCCOCCNC(=O)COCCOCCNC(=O)COCCOCCNC(=O)CC[C@H](NC(=O)CCCCCCCCCCCCCCCCCCCCC(=O)O)C(=O)O)[C@@H](C)O)C(C)C)C(=O)N[C@@H](CO)C(=O)N[C@@H](CCC(=O)O)C(=O)N[C@@H](CCC(=O)O)C(=O)N[C@@H](CC(C)C)C(=O)N[C@@H](Cc1c[nH]cn1)C(=O)N[C@@H](CCCNC(=N)N)C(=O)N[C@@H](CC(C)C)C(=O)N[C@@H](CCC(N)=O)C(=O)N[C@@H](CC(=O)O)C(=O)N[C@@H](Cc1ccc(O)cc1)C(=O)N1CCC[C@H]1C(=O)N[C@@H](CCCNC(=N)N)C(=O)N[C@H](C(=O)N[C@@H](CC(=O)O)C(=O)N[C@H](C(=O)NCC(=O)N[C@@H](CO)C(=O)NCC(=O)N[C@@H](CO)C(=O)N1CCC[C@H]1C(N)=O)C(C)C)[C@@H](C)O [M67] ({C22 diacid-γGlu-AEEA-AEEA-AEEA-AEEA}-ASQLSTAVLGRLSEELHRLQDYPRTDVGSGSP-NH2) |
| 0.017 nM | CC(C)C[C@H](NC(=O)[C@H](CCCNC(=N)N)NC(=O)CNC(=O)[C@H](CC(C)C)NC(=O)[C@@H](NC(=O)[C@H](C)NC(=O)[C@@H](NC(=O)[C@H](CO)NC(=O)[C@H](CC(C)C)NC(=O)[C@H](CCC(N)=O)NC(=O)[C@H](CO)NC(=O)[C@H](C)NC(=O)C[C@H](NC(=O)CCCCCCCCCCCCCCCCCCC(=O)O)C(=O)O)[C@@H](C)O)C(C)C)C(=O)N[C@@H](CO)C(=O)N[C@@H](CCC(=O)O)C(=O)N[C@@H](CCC(=O)O)C(=O)N[C@@H](CC(C)C)C(=O)N[C@@H](Cc1c[nH]cn1)C(=O)N[C@@H](CCCNC(=N)N)C(=O)N[C@@H](CC(C)C)C(=O)N[C@@H](CCC(N)=O)C(=O)N[C@@H](CC(=O)O)C(=O)N[C@@H](Cc1ccc(O)cc1)C(=O)N1CCC[C@H]1C(=O)N[C@@H](CCCNC(=N)N)C(=O)N[C@H](C(=O)N[C@@H](CC(=O)O)C(=O)N[C@H](C(=O)NCC(=O)N[C@@H](CO)C(=O)NCC(=O)N[C@@H](CO)C(=O)N1CCC[C@H]1C(N)=O)C(C)C)[C@@H](C)O [M53] ({C20 diacid-βAsp}-ASQLSTAVLGRLSEELHRLQDYPRTDVGSGSP-NH2) |
| 0.037 nM | CC(C)C[C@H](NC(=O)[C@H](CCCNC(=N)N)NC(=O)CNC(=O)[C@H](CC(C)C)NC(=O)[C@@H](NC(=O)[C@H](C)NC(=O)[C@@H](NC(=O)[C@H](CO)NC(=O)[C@H](CC(C)C)NC(=O)[C@H](CCC(N)=O)NC(=O)[C@H](CO)NC(=O)[C@H](C)NC(=O)COCCOCCNC(=O)COCCOCCNC(=O)COCCOCCNC(=O)COCCOCCNC(=O)CC[C@H](NC(=O)CCCCCCCCCCCCCCCCCCC(=O)O)C(=O)O)[C@@H](C)O)C(C)C)C(=O)N[C@@H](CO)C(=O)N[C@@H](CCC(=O)O)C(=O)N[C@@H](CCC(=O)O)C(=O)N[C@@H](CC(C)C)C(=O)N[C@@H](Cc1c[nH]cn1)C(=O)N[C@@H](CCCNC(=N)N)C(=O)N[C@@H](CC(C)C)C(=O)N[C@@H](CCC(N)=O)C(=O)N[C@@H](CC(=O)O)C(=O)N[C@@H](Cc1ccc(O)cc1)C(=O)N1CCC[C@H]1C(=O)N[C@@H](CCCNC(=N)N)C(=O)N[C@H](C(=O)N[C@@H](CC(=O)O)C(=O)N[C@H](C(=O)NCC(=O)N[C@@H](CO)C(=O)NCC(=O)N[C@@H](CO)C(=O)N1CCC[C@H]1C(N)=O)C(C)C)[C@@H](C)O [M63] ({C20 diacid-γGlu-AEEA-AEEA-AEEA-AEEA}-ASQLSTAVLGRLSEELHRLQDYPRTDVGSGSP-NH2) |
| 0.017 nM | CC(C)C[C@H](NC(=O)[C@H](CCCNC(=N)N)NC(=O)CNC(=O)[C@H](CC(C)C)NC(=O)[C@@H](NC(=O)[C@H](C)NC(=O)[C@@H](NC(=O)[C@H](CO)NC(=O)[C@H](CC(C)C)NC(=O)[C@H](CCC(N)=O)NC(=O)[C@H](CO)NC(=O)[C@H](C)NC(=O)COCCOCCNC(=O)COCCOCCNC(=O)CC[C@H](NC(=O)CCCCCCCCCCCCCCCCCCC(=O)O)C(=O)O)[C@@H](C)O)C(C)C)C(=O)N[C@@H](CO)C(=O)N[C@@H](CCC(=O)O)C(=O)N[C@@H](CCC(=O)O)C(=O)N[C@@H](CC(C)C)C(=O)N[C@@H](Cc1c[nH]cn1)C(=O)N[C@@H](CCCNC(=N)N)C(=O)N[C@@H](CC(C)C)C(=O)N[C@@H](CCC(N)=O)C(=O)N[C@@H](CC(=O)O)C(=O)N[C@@H](Cc1ccc(O)cc1)C(=O)N1CCC[C@H]1C(=O)N[C@@H](CCCNC(=N)N)C(=O)N[C@H](C(=O)N[C@@H](CC(=O)O)C(=O)N[C@H](C(=O)NCC(=O)N[C@@H](CO)C(=O)NCC(=O)N[C@@H](CO)C(=O)N1CCC[C@H]1C(N)=O)C(C)C)[C@@H](C)O [M57] ({C20 diacid-γGlu-AEEA-AEEA}-ASQLSTAVLGRLSEELHRLQDYPRTDVGSGSP-NH2) |
| 0.017 nM | CC(C)C[C@H](NC(=O)[C@H](CCCNC(=N)N)NC(=O)CNC(=O)[C@H](CC(C)C)NC(=O)[C@@H](NC(=O)[C@H](C)NC(=O)[C@@H](NC(=O)[C@H](CO)NC(=O)[C@H](CC(C)C)NC(=O)[C@H](CCC(N)=O)NC(=O)[C@H](CO)NC(=O)[C@H](C)NC(=O)C1CCN(C(=O)CCCCCCCCCCCCCCCCCCC(=O)O)CC1)[C@@H](C)O)C(C)C)C(=O)N[C@@H](CO)C(=O)N[C@@H](CCC(=O)O)C(=O)N[C@@H](CCC(=O)O)C(=O)N[C@@H](CC(C)C)C(=O)N[C@@H](Cc1c[nH]cn1)C(=O)N[C@@H](CCCNC(=N)N)C(=O)N[C@@H](CC(C)C)C(=O)N[C@@H](CCC(N)=O)C(=O)N[C@@H](CC(=O)O)C(=O)N[C@@H](Cc1ccc(O)cc1)C(=O)N1CCC[C@H]1C(=O)N[C@@H](CCCNC(=N)N)C(=O)N[C@H](C(=O)N[C@@H](CC(=O)O)C(=O)N[C@H](C(=O)NCC(=O)N[C@@H](CO)C(=O)NCC(=O)N[C@@H](CO)C(=O)N1CCC[C@H]1C(N)=O)C(C)C)[C@@H](C)O [M56] ({C20 diacid-Inp}-ASQLSTAVLGRLSEELHRLQDYPRTDVGSGSP-NH2) |
| 0.016 nM | CC(C)C[C@H](NC(=O)[C@H](CCCNC(=N)N)NC(=O)CNC(=O)[C@H](CC(C)C)NC(=O)[C@@H](NC(=O)[C@H](C)NC(=O)[C@@H](NC(=O)[C@H](CO)NC(=O)[C@H](CC(C)C)NC(=O)[C@H](CCC(N)=O)NC(=O)[C@H](CO)NC(=O)[C@H](C)NC(=O)CC[C@H](NC(=O)CCCCCCCCCCCCCCCCCCC(=O)O)C(=O)O)[C@@H](C)O)C(C)C)C(=O)N[C@@H](CO)C(=O)N[C@@H](CCC(N)=O)C(=O)N[C@@H](CCC(=O)O)C(=O)N[C@@H](CC(C)C)C(=O)N[C@@H](Cc1c[nH]cn1)C(=O)N[C@@H](CCCNC(=N)N)C(=O)N[C@@H](CC(C)C)C(=O)N[C@@H](CCC(N)=O)C(=O)N[C@@H](CC(=O)O)C(=O)N[C@@H](Cc1ccc(O)cc1)C(=O)N1CCC[C@H]1C(=O)N[C@@H](CCCNC(=N)N)C(=O)N[C@H](C(=O)N[C@@H](CCC(N)=O)C(=O)N[C@H](C(=O)NCC(=O)N[C@@H](CO)C(=O)NCC(=O)N[C@@H](CO)C(=O)N1CCC[C@H]1C(N)=O)C(C)C)[C@@H](C)O [M15] ({C20 diacid-γGlu}-ASQLSTAVLGRLSQELHRLQDYPRTQVGSGSP-NH2) |
